This passage reports refractive index results from the NIST ThermoML archive (doi:10.1021/je400471m).

As usually defined, the refractive index is a measure of how strongly the sample bends light.

± gives the expanded uncertainty stated by the source.

Data set [1] is described as follows: refractive index (Na D-line) (dimensionless); wn = mass fraction of the nth substance listed. As to conditions: 338.15 K, 98 kPa, Liquid, Standard Abbe refractometry.
The nature of data set [2]: refractive index (Na D-line) (dimensionless). The note with it: 338.15 K; 98 kPa; Liquid; Standard Abbe refractometry.

As to `O=C(CO)[C@@H](O)[C@H](O)[C@H](O)CO` [D-fructose] + O, the refractive index in data set [1] (w1 = 0.2189) turned out to be 1.3687 ± 0.0096; in data set [1] (w1 = 0.3592), 1.3945 ± 0.0096; in data set [1] (w1 = 0.4567), 1.4159 ± 0.0096; in data set [1] (w1 = 0.5286), 1.4339 ± 0.0096; in data set [1] (w1 = 0.5759), 1.4393 ± 0.0096; in data set [1] (w1 = 0.579) it was 1.4413 ± 0.0096. Besides, the refractive index in data set [1] (w1 = 0.5836) stood at 1.4428 ± 0.0096.
For the compound `O` [water], the refractive index in data set [2] came out at 1.323 ± 0.0096.
For the compound `CCO` [ethanol] + O, the refractive index is listed as 1.3363 ± 0.0096 in data set [1] (w1 = 0.2), 1.3415 ± 0.0096 in data set [1] (w1 = 0.4), 1.3569 ± 0.0096 in data set [1] (w1 = 0.6) and 1.3587 ± 0.0096 in data set [1] (w1 = 0.9).
